The values below are quoted from earlier work in US10525099B2, “Orally disintegrating solid pharmaceutical dosage unit containing a partus control substance” (Oxytone Bioscience B.V., priority 2014, dated 2020).

The structures appear in SMILES notation. Bridge positions count the residues as written; N and C are the ends. Square brackets hold non-standard residues; d marks the D form. Peptide text beside a SMILES is read from it. Orn = NCCC[C@H](N)C(=O)O; Mpa = O=C(O)CCS

For series [1] the following is noted: lyophilized.
The conditions of series [2]: in vivo.

Regarding `CCOc1ccc(C[C@H]2NC(=O)CCSSC[C@@H](C(=O)N3CCC[C@H]3C(=O)N[C@@H](CCCN)C(=O)NCC(N)=O)NC(=O)[C@H](CC(N)=O)NC(=O)[C@H]([C@@H](C)O)NC(=O)[C@H]([C@@H](C)CC)NC2=O)cc1` [atosiban] ([Mpa][dY](Et)ITNCP[Orn]G-NH2; disulfide 1-6), the “time stable at room temperature” value in series [1] is on record as 3 weeks.

On to `CC[C@H](C)[C@@H]1NC(=O)[C@H](Cc2ccc(O)cc2)NC(=O)[C@@H](N)CSSC[C@@H](C(=O)N2CCC[C@H]2C(=O)N[C@@H](CC(C)C)C(=O)NCC(N)=O)NC(=O)[C@H](CC(N)=O)NC(=O)[C@H](CCC(N)=O)NC1=O` [Oxytocin, cysteine-tyrosine-isoleucine-glutamine-asparagine-cysteine-proline-leucine-glycine-amide], for which the “half-life in the blood” value in series [2] is reported as “about three”.
